PubChem BioAssay AID179 (DTP/NCI, 2004)
Calls of active or inactive are those of the source.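 How the source made its calls: active means compounds giving half or more protection of infected cells from virus-caused growth loss, again on retest; inactive means the rest.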 Where a SMILES comes first, the peptide text is derived from it. [ ]: non-standard residue; d: D form. The star is where a group is joined. Boc = CC(C)(C)OC(=O)*; Lac = C[CH](O)C(=O)O; OBn = c1ccc(CO*)cc1

System: CEM cells HIV-1 protection, formazan growth assay
Assay: NCI AIDS Antiviral Assay
Settings: for IC50: measured here: growth of uninfected CEM cells
Procedure, shortened: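 Human CEM cells, uninfected and HIV-1-infected, exposed to five drug concentrations; growth measured by soluble formazan assay and scored as percent protection from infection, with protecting compounds retested.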

| Structure (SMILES) | EC50 | IC50 | outcome |
| --- | --- | --- | --- |
| C=CCC1(C(C)C(O)c2cc(OC)c(OC)c(OC)c2)CC(O)C=CC12OCCO2 (stereo not drawn) | > 200 µM | 9.12 µM | – |
| C#CCNC(CS)C(=O)O (stereo not drawn) | > 200 µM | > 200 µM | – |
| OCC1C(CO)C2CC1C1N=NN(c3ccccc3)C21 (stereo not drawn) | > 324 µM | > 324 µM | – |
| O=C(N/N=C\c1ccc([N+](=O)[O-])cc1)c1ccccc1Nc1ccccc1C(=O)N/N=C/c1ccc([N+](=O)[O-])cc1 | 91.2 µM | > 200 µM | – |
| CN(C)[C@@H]1C(=O)C(C(=O)NCNc2nc3n[nH]nc3c(=O)[nH]2)=C(O)[C@@]2(O)C(=O)C3=C(O)c4c(O)cccc4[C@@](C)(O)[C@H]3C[C@@H]12 | > 0.891 µM | 0.562 µM | – |
| CC(=O)CN=C(C)NNc1ccc([N+](=O)[O-])cc1[N+](=O)[O-] | > 200 µM | 60.3 µM | – |
| O=C(Nc1cccc(C(=O)NCCCO)c1)/C(=C/c1ccccc1)NC(=O)c1ccccc1 | > 200 µM | > 200 µM | – |
| O=C1NC(=O)C2C3C=CC(C12)C1C2C(=O)NC(=O)C2C31 (stereo not drawn) | > 95.5 µM | > 95.5 µM | – |
| CCOC(=O)c1c2c(nc3c1CCCC3)CCCC2 | > 200 µM | 64.6 µM | – |
| CC1(CO)CCCC1NCCNC1CCCC1(C)CO (stereo not drawn) | > 182 µM | 107 µM | – |
| CC(C)(C)N=C(N)NC#N | > 200 µM | > 200 µM | – |
| COc1cc(C(O)C(=O)c2nc3ccc([N+](=O)[O-])cc3[nH]c2=O)ccc1O (stereo not drawn) | > 251 µM | > 251 µM | – |
| O=Cc1cccc(/C=N/Nc2nnc(N/N=C/c3cccc(C=O)c3)c3ccccc23)c1 | > 200 µM | 28.8 µM | – |
| NC1CC2C3CCC2C1C3=O (stereo not drawn) | > 200 µM | > 200 µM | – |
| O=C(C(=O)c1cc(-c2ccccc2)nc2ccc3ccccc3c12)c1ccccc1 | > 200 µM | 174 µM | – |
| OC1c2ccccc2CC12Cc1ccccc1C2 (stereo not drawn) | > 200 µM | 145 µM | – |
| O=C(Cc1nc2ccccc2c(=O)n1-c1ccccc1Cl)c1ccncc1 | > 5.37 µM | > 5.37 µM | – |
| CC(=O)O[C@H]1C(=O)[C@@]2(C)[C@H]([C@H](OC(=O)c3ccccc3)[C@]3(O)C[C@H](OC(=O)[C@H](O)[C@@H](NC(=O)c4ccccc4)c4ccccc4)C(C)=C1C3(C)C)[C@]1(OC(C)=O)CO[C@@H]1C[C@@H]2O | > 0.417 µM | 0.0135 µM | – |
| c1cncc(C2(c3cc4ccccc4[nH]3)COCO2)c1 (stereo not drawn) | > 200 µM | 126 µM | – |
| CC/C(=N/OC(=O)N(CC)CC)c1ccccc1 | > 200 µM | 117 µM | – |
| Cc1cc2nc3ccccc3n2c2nc(N)ccc12 | > 200 µM | 6.61 µM | – |
| CC(=O)c1cc(CC2Cc3cc4c(cc3C2=O)CCC4)cc2c1CCC2 (stereo not drawn) | > 200 µM | 12.9 µM | – |

| Structure (SMILES) | EC50 | IC50 | outcome |
| --- | --- | --- | --- |
| C=C1CC(C)(Cn2c(N)nc3nc[nH]c3c2=O)OC1=O (stereo not drawn) | > 200 µM | 117 µM | – |
| C1CCCCC/C2=C(\CCCC1)CSCCCS2 | > 200 µM | 58.9 µM | – |
| N#Cc1c2n(c3c(=O)n(-c4ccccc4)c(=S)[nH]c13)CCCCC2 | > 151 µM | > 151 µM | – |
| Fc1ccc(-c2sc(-c3ccsc3)cc2Cc2ccsc2)cc1 | – | – | inactive |
| COc1cc(C(C)=O)cc(C(=O)N(C(C)C)C(C)C)c1[Si](C)(C)C | > 100 µM | > 100 µM | – |
| COc1ccc(-c2oc3cc(O)cc(O)c3c(=O)c2OC)cc1 | – | – | inactive |
| CN1CCN(CC(=O)N2CCCn3c2nc2ccccc2c3=O)CC1 | > 200 µM | > 200 µM | – |
| COc1ccc2c(O)c(Oc3ccc(Cl)cc3)c(=O)oc2c1 | – | – | inactive |
| COc1ccc2nc(NC(=O)/C(C#N)=C/c3ccccc3)sc2c1 | > 200 µM | 12 µM | – |
| CC(C)OC(=O)c1ccc(NCc2cc(O)ccc2O)cc1 | > 200 µM | 2.19 µM | – |
| CC1=NN(C(=O)CC(=O)Nc2ccc(Cl)cc2)C(=O)C1N=Nc1ccc(S(=O)(=O)c2ccc(N=NC3C(=O)N(C(=O)CC(=O)Nc4ccc(Cl)cc4)N=C3C)cc2)cc1 (stereo not drawn) | > 50.1 µM | > 50.1 µM | – |
| CC(OC(=O)C(Cc1ccccc1)NC(=O)C(Cc1ccccc1)NC(=O)OC(C)(C)C)C(=O)OCc1ccccc1 (stereo not drawn) (Boc-Phe-Phe-[Lac]-OBn; configuration not given here) | > 200 µM | 105 µM | – |
| CN(C)C=Nc1ccc2nonc2c1 | > 200 µM | 151 µM | – |
| COC(=O)c1ccccc1/C=C1/Cc2cccc(C)c2C1=O | > 200 µM | > 200 µM | – |
| O=C(O)/C(=C/c1ccccc1[N+](=O)[O-])c1ccccc1 | > 603 µM | 550 µM | – |
| Cc1ccc(NC(=O)/C(Cl)=C(/Cl)C(=O)O)cc1 | – | – | inactive |
| CNC(=O)NCCCCC(NC(C)=O)C(=O)NCc1ccccc1 (stereo not drawn) | > 741 µM | > 741 µM | – |
| CCc1cc(=O)oc2c3c(cc(OC)c12)O[C@H](C)[C@@H](C)C3=O | > 200 µM | 31.6 µM | – |
| N/N=C(\N)SCc1ccc(N=C=S)cc1 | – | – | inactive |
| Cn1nc(NC(=O)c2cc(NC(=O)Nc3cc(C(=O)Nc4cc(C(=O)Nc5ccc6cc(S(=O)(=O)O)cc(S(=O)(=O)O)c6c5)n(C)n4)n(C)n3)nn2C)cc1C(=O)Nc1ccc2cc(S(=O)(=O)O)cc(S(=O)(=O)O)c2c1 | 5.13 µM | > 100 µM | – |
| N#C/C(=C/N1C(=O)CC(=O)NC1=S)c1cccc(Cl)c1 | 182 µM | > 200 µM | – |
| O=C(CCCN1CCC(Nc2ccccc2)(c2nnnn2C2CCCCC2)CC1)c1ccc(F)cc1 | > 200 µM | 75.9 µM | – |

| Structure (SMILES) | EC50 | IC50 | outcome |
| --- | --- | --- | --- |
| Cc1ccc2c(c1)P1c3cc(C)ccc3SP1S2 (stereo not drawn) | > 12.3 µM | > 12.3 µM | – |
| COC1=C(OC)C(=O)C2=C(OCCCO2)C1=O | > 389 µM | 2 µM | – |
| C[PH+](C)CC[PH+](CC[PH+](c1ccccc1)c1ccccc1)c1ccccc1.[C-]#[O+].[C-]#[O+].[C-]#[O+].[Mo] (stereo not drawn) | – | – | inactive |
| COc1c(C)cc2c(C(C)C)c(O)c(O)c(C=O)c2c1O | > 871 µM | 14.8 µM | – |
| Nc1ccc2ncc(Nc3ccc(Cl)c(Cl)c3)nc2c1 | > 8.91 µM | > 8.91 µM | – |
| COc1ccccc1NC(=S)Nc1cccc(C)n1 | 16.6 µM | 61.7 µM | – |
| OC1CCC2OOC1O2 (stereo not drawn) | – | – | inactive |
| C#CCOCn1cnc2c(Cl)ncnc21 | > 1120 µM | 79.4 µM | – |
| Nc1nc(=S)[nH]c2n[nH]nc12 | > 200 µM | > 200 µM | – |
| Cc1cc(C)nc(NS(=O)(=O)c2ccc(NC(=O)c3cccc4c(Nc5ccc(S(=O)(=O)Nc6nc(C)cc(C)n6)cc5)c5ccc(Cl)cc5nc34)cc2)n1 | > 85.1 µM | > 85.1 µM | – |
| CCOC(=O)C1(C/C=C(/C)Cl)CCCC1=O (stereo not drawn) | > 204 µM | > 204 µM | – |
| Cc1ccc2cccc(-c3cccc4ccccc34)c2n1 | > 200 µM | 10.5 µM | – |
| COc1nc2c(c(=O)[nH]1)N=C(c1ccc(Cl)cc1)CC(c1ccccc1)N2 (stereo not drawn) | > 200 µM | 55 µM | – |
| CC(CNc1ccc(Cl)cc1)(CNc1ccc(Cl)cc1)[N+](=O)[O-] | > 14.8 µM | > 14.8 µM | – |
| Nc1nc(N)c(NC(=O)CCCO)c(=O)[nH]1 | > 200 µM | > 200 µM | – |
| O=C(NCc1ccccc1)OCCO | – | – | inactive |
| CN(C)c1nc(=NCc2ccccn2)ss1 | > 17.4 µM | 9.33 µM | – |
| COC(=O)[C@@]1(C)CCC[C@]2(C(=O)O)C3Cc4occc4[C@H](C)[C@@H]3CCC21 (stereo partly drawn) | > 200 µM | 105 µM | – |
| Cn1c(COC(=O)NC2CCCCC2)c(COC(=O)NC2CCCCC2)c2ccc3cc(Cl)c(Cl)cc3c21 | > 174 µM | 6.46 µM | – |
| O=S(Cc1ccccc1)/C(=C/NC(=S)Nc1cc(Cl)ccc1Cl)c1ccccc1 (stereo not drawn) | > 200 µM | > 200 µM | – |
| [O]=[Sb]([OH])([OH])[c]1ccc(O)cc1 | > 200 µM | 33.9 µM | – |
| Cc1ccc(-n2cc(-c3ccc(Cl)cc3)c3c2N=CN2NC(c4cccs4)=NC32)cc1 (stereo not drawn) | > 100 µM | 42.7 µM | – |

| Structure (SMILES) | EC50 | IC50 | outcome |
| --- | --- | --- | --- |
| Cc1cc(Cl)ccc1NC(=O)C(=O)C(C(=O)c1ccccc1)C1OC(=O)c2ccccc21 (stereo not drawn) | > 562 µM | 302 µM | – |
| O=C(CCCC[n+]1ccccc1)Sc1ccccc1C(=O)Nc1ccc(S(=O)(=O)Nc2ncccn2)cc1 | 17 µM | 56.2 µM | – |
| O=C(CCCCCCCCC(=O)NCC1(c2ccccc2)CCNCC1)NCC1(c2ccccc2)CCNCC1 | > 100 µM | > 100 µM | – |
| COc1ccccc1C(=O)[O][Sn]([c]1ccccc1)([c]1ccccc1)[c]1ccccc1 | > 2 µM | 0.219 µM | – |
| COc1ccc2c(c1C)C(=O)C(O)(CC=C(C)C)O2 (stereo not drawn) | > 200 µM | 42.7 µM | – |
| COC(=O)C(C(=O)C(=O)Nc1ccccc1C(C)=O)c1nc2ccc(Cl)cc2[nH]c1=O (stereo not drawn) | > 58.9 µM | > 58.9 µM | – |
| COC(=O)C1=C(C(=O)OC)C2(OC(C)=O)c3ccccc3-c3ccccc3C12 (stereo not drawn) | > 2.51 µM | 1.35 µM | – |
| COC(=O)N/N=C(/CCC(=O)Nc1ccc(C)c(C)c1)CC(=O)C(C)(C)C | > 661 µM | > 661 µM | – |
| Cc1sc2nc3n(c(=O)c2c1C)N=C(c1ccc(Cl)cc1)CS3 | > 200 µM | > 200 µM | – |
| O=[N+]([O-])C(Cl)=C/C(=C(\Cl)SCc1ccccc1)[N+](=O)[O-] | > 200 µM | 12 µM | – |
| O=C1C=C(Nc2ccccc2C(=O)c2ccccc2)c2ccccc2C1=O | > 2.95 µM | > 2.95 µM | – |
| Cc1cccc(NC(=S)N/N=C(/c2ccccc2)c2ccccn2)c1 | > 0.2 µM | 0.0933 µM | – |
| CCOP(=O)(OCC)C(C)(CC)/N=C(\N)NC#N (stereo not drawn) | > 200 µM | > 200 µM | – |
| COc1ccc(C(=O)c2ccc(OC)c(S(=O)(=O)N(C)C=O)c2)cc1S(=O)(=O)N(C)C=O | > 38.9 µM | > 38.9 µM | – |
| N#CC(C(=O)/C(=N/N)C(C#N)c1ccccc1)c1ccccc1 (stereo not drawn) | > 309 µM | > 309 µM | – |
| c1ccc(-c2cc(N3CCOCC3)c3ccccc3n2)cc1 | – | – | inactive |
| O=C1c2ccccc2C(=O)N1N1CC1Br (stereo not drawn) | > 200 µM | > 200 µM | – |
| Oc1cc(O)c2ccc(-c3ccc(O)c(O)c3)[o+]c2c1 | > 200 µM | 12.3 µM | – |
| Cn1cnc([N+](=O)[O-])c1Sc1nc2ccccc2o1 | > 26.3 µM | 2.75 µM | – |
| COC(=O)[C@]1(C)CC[C@]2(C)CC[C@]3(C)C4CC[C@@]56CO[C@@](O)(CCC5[C@]4(C)CCC3(C)[C@@H]2C1)[C@@H]6C (stereo partly drawn) | > 28.2 µM | 26.9 µM | – |
